Source: patent publication US5912233A, “Methods and peptides for the treatment of non-IgE-mediated diseases” (Dura Pharmaceuticals, Inc., priority 1995, dated 1999)
Several values for one entry are separate records, joined by “and”; a condition that tells them apart may be missing. Equal entries are not always repeated. Residues, ends and D or L forms follow the SMILES beside them. No end group written: not given here.

Assays:
[1] = test system: tetanus toxoid-induced DTH reactions; design: species or system Balb/C mice; conditions: mouse, in vivo
[2] = test system: sheep erythrocyte (SRBC)-induced DTH reactions; experiment: Sheep erythrocyte (SRBC)-induced DTH, footpad volume; format: in vivo, Balb/C mice; conditions: indomethacin 1.0 mg/kg, day 4; positive control
[3] = test system: carrageenan-induced inflammation; experiment: Carrageenan-induced footpad edema; format: in vivo, Balb/C mice; conditions: 10 mg/kg s.c. 24 hours prior to carrageenan
Protocol: In order to examine the ability of pentigetide to inhibit carrageenan-induced inflammation, female Balb/C mice were injected with 0.025 ml of 1.0% carrageenan solution (type lx carrageenan: Sigma No. C-1013, Lot No. 86F-0698) or saline in the right hind footpad 5 minutes after intravenous tail vein injection of 0.2 ml pentigetide (1.0 mg/kg) or saline solution. Indomethacin (10 mg/kg was used as a positive control and was administered by subcutaneous injection 24 hours prior to carrageenan injection. Footpad volumes were measured using a Buxco plethysmograph over a 6 hour period. Pentigetide produced substantial inhibition of carrageenan-induced inflammation when compared to saline control animals.

[4] = test system: chronic idiopathic urticaria; conditions: human, in vivo
[5] = test system: immune complex-mediated ulcerative colitis; experiment: Immune complex-induced ulcerative colitis model (formalin + IgG immune complexes); format: in vivo, BKA mice; conditions: prednisolone 5.0 mg/kg i.p.
Protocol: A mouse model of intestinal inflammation was employed wherein the efficacy of pentigetide in reducing inflammation induced by formalin and complementfixing lgG immune complexes was measured. This model is particularly useful as a model of human ulcerative colitis and shares many clinical and histological functions of the human disease including sensitivity to glucocorticoids, sulfasalazine and 5-aminosalicylic acid (see L. P. Walsh, et al., British J. Pharm. 91:294 (1987); A. Blackham, et al., British J. Pharm. 89:694 (1986); L. D. Walsh and I. J. Zeitlin, British J. Pharm. 92:741 (1987)). The mouse model of intestinal inflammation used in these studies is induced by the exposure of the animals to chemicals which are known to trigger inflammatory processes in both animals and humans. […]
Colonic tissue water content was determined by tissue weight loss on drying of colonic tissues. […]
The response to immune complex alone was determined quantitatively by subtracting the mean value in group B from the mean value in group C. An estimate of the percentage reduction in this response produced by the drug was calculated as: [formula] […] Statistical significance was determined using the non-parametric Mann-Whitney U-test. […]

[6] = test system: lymphoblastoid tissue culture cells; conditions: two trials; U.S. Pat. No. 4,161,522; cited from earlier work
[7] = test system: immunoglobulin Fc receptors; conditions: U.S. Pat. No. 4,628,045; cited from earlier work

In the case of `COc1ccc2c(c1)c(CC(=O)O)c(C)n2C(=O)c1ccc(Cl)cc1` [Indomethacin, indomethacin], the “inhibition (footpad swelling)” value [1] is reported as 45%, the “inhibition (footpad swelling)” value [2] is reported as 43% and the “Percent Inhibition” value ([3]; 1.0 hours after carrageenan injection) is reported as -35%. For the same compound, the “Percent Inhibition” value ([3]; 2.0 hours after carrageenan injection) was -60%, the “Percent Inhibition” value ([3]; 4.0 hours after carrageenan injection) was -39% and the “Percent Inhibition” value ([3]; 6.0 hours after carrageenan injection) was -47%.
In the case of `N=C(N)NCCC[C@H](NC(=O)[C@@H]1CCCN1C(=O)[C@H](CC(=O)O)NC(=O)[C@H](CO)NC(=O)[C@@H](N)CC(=O)O)C(=O)O` [pentigetide, Asp-Ser-Asp-Pro-Arg] (H-DSDPR-OH), the side effects [4] is reported as “did not experience any side effects”.
With `C[C@]12C=CC(=O)C=C1CC[C@@H]1[C@@H]2[C@@H](O)C[C@@]2(C)[C@H]1CC[C@]2(O)C(=O)CO` [prednisolone] the “reduction of colonic edema” value ([5]; three days prior and daily thereafter, p<0.01) was 86.2% and the “reduction of colonic edema (in the colitic sign score paragraph)” value ([5]; p<0.001) was 93.8%.
For “Asn-Ser-Asn-Pro-Arg (NSNPR; printed: Asn-Ser-Asn-Pro-Arg)”, the “activity in blocking binding of IgE to lymphoblastoid tissue culture cells” value (shortened to “activity in blocking binding of IgE”) [6] is listed as “lower activity”.
In the case of “Asn-Ser-Asp-Pro-Arg (NSDPR; printed: Asn-Ser-Asp-Pro-Arg)”, the “activity in blocking binding of IgE” value [6] is given as “lower activity”.
In the case of “Asp-Ser-Glu-Pro-Arg (DSEPR; printed: Asp-Ser-Glu-Pro-Arg)”, the “blocking of immune complex binding to immunoglobulin Fc receptors” value [7] is given as “capable of blocking immune complex binding”.
In the case of “[-Cys-Ala-Asn-Ser-Asn-Pro-Arg]2 (CANSNPR; also: dimer)”, the “activity in blocking binding of IgE” value [6] is given as 9% and 12%.
